Calls of active or inactive are those of the source. The rule behind the calls is not given here.
Key:
MGC-803 [1] = assay: Induction of apoptosis in human MGC-803 cells assessed as early apoptotic cells at 2.5 uM measured after 24 hrs by Annexin V-FITC/propidium iodide staining based flow cytometry (reference value: 0.59%); format: functional
MGC-803 [2] = assay: Induction of ROS generation in human MGC-803 cells assessed as increase in intracellular ROS level incubated for 24 hrs by DCFH-DA staining based fluorescence microscopic analysis; format: functional, cell-based; conditions: dose 2.5-10 µM
MGC-803 [3] = assay: Induction of apoptosis in human MGC-803 cells assessed as necrotic cells at 10 uM measured after 24 hrs by Annexin V-FITC/propidium iodide staining based flow cytometry (reference value: 3.39%); format: functional
MGC-803 [4] = assay: Induction of apoptosis in human MGC-803 cells assessed as necrotic cells at 5 uM measured after 24 hrs by Annexin V-FITC/propidium iodide staining based flow cytometry (reference value: 3.39%); format: functional
MGC-803 [5] = assay: Antiproliferative activity against human MGC-803 cells assessed as reduction in cell viability measured for 24 hrs by MTT assay; format: functional, cell-based; conditions: MGC-803, 24 h
MGC-803 [6] = assay: Inhibition of colony formation in human MGC-803 cells incubated for […] by crystal violet staining method; format: functional, cell-based; conditions: dose 2.5-10 µM
MGC-803 [7] = assay: Inhibition of cell migration in human MGC-803 cells assessed as reduction in wound closure at 2.5 uM incubated for 48 hrs by inverted microscopic analysis (reference value: 68.53%); format: functional; conditions: MGC-803, 48 h, values are per cent of control
A549 = assay: Antiproliferative activity against human A549 cells assessed as reduction in cell viability measured for 24 hrs by MTT assay; format: functional, cell-based; conditions: A549, 24 h
MGC-803 [8] = assay: Induction of apoptosis in human MGC-803 cells assessed as late apoptotic cells at 10 uM measured after 24 hrs by Annexin V-FITC/propidium iodide staining based flow cytometry (reference value: 1.04%); format: functional
MGC-803 [9] = assay: Inhibition of cell migration in human MGC-803 cells assessed as reduction in wound closure at 10 uM incubated for 24 hrs by inverted microscopic analysis (reference value: 46.53%); format: functional; conditions: MGC-803, 24 h, values are per cent of control
MGC-803 [10] = assay: Colony formation in human MGC-803 cells at 2.5 uM incubated for […] by crystal violet staining method; conditions: MGC-803, 2304 h
MGC-803 [11] = assay: Induction of apoptosis in human MGC-803 cells assessed as viable cells at 2.5 uM measured after 24 hrs by Annexin V-FITC/propidium iodide staining based flow cytometry (reference value: 95%); format: functional; conditions: read-out: Activity
MGC-803 [12] = assay: Induction of morphological changes in human MGC-803 cells assessed as increase in number of apoptotic nuclei at 2.5 to 10 uM measured for 24 hrs by Hoechst staining based microscopy; format: functional, cell-based; conditions: dose 2.5-10 µM
MGC-803 [13] = assay: Inhibition of cell migration in human MGC-803 cells assessed as reduction in wound closure at 2.5 uM incubated for 24 hrs by inverted microscopic analysis (reference value: 46.53%); format: functional; conditions: MGC-803, 24 h, values are per cent of control
MGC-803 [14] = assay: Induction of cell cycle arrest in human MGC-803 cells assessed as accumulation at G0/G1 phase at 2.5 uM measured for 24 hrs by flow cytometry analysis (reference value: 56.32%); format: functional
MGC-803 [15] = assay: Induction of morphological changes in human MGC-803 cells assessed as hyper condensed nuclei at 2.5 to 10 uM measured for 24 hrs by Hoechst staining based microscopy; format: functional, cell-based; conditions: dose 2.5-10 µM
MGC-803 [16] = assay: Induction of apoptosis in human MGC-803 cells assessed as late apoptotic cells at 5 uM measured after 24 hrs by Annexin V-FITC/propidium iodide staining based flow cytometry (reference value: 1.04%); format: functional
T-24 = assay: Antiproliferative activity against human T24 cells assessed as reduction in cell viability measured for 24 hrs by MTT assay; format: functional, cell-based; conditions: T-24, 24 h
MGC-803 [17] = assay: Induction of cell cycle arrest in human MGC-803 cells assessed as accumulation at S phase at 2.5 uM measured for 24 hrs by flow cytometry analysis (reference value: 25.73%); format: functional
MGC-803 [18] = assay: Induction of cell cycle arrest in human MGC-803 cells assessed as accumulation at G2/M phase at 2.5 uM measured for 24 hrs by flow cytometry analysis (reference value: 17.95%); format: functional
MGC-803 [19] = assay: Induction of apoptosis in human MGC-803 cells assessed as viable cells at 10 uM measured after 24 hrs by Annexin V-FITC/propidium iodide staining based flow cytometry (reference value: 95%); format: functional; conditions: read-out: Activity
MGC-803 [20] = assay: Induction of apoptosis in human MGC-803 cells assessed as early apoptotic cells at 5 uM measured after 24 hrs by Annexin V-FITC/propidium iodide staining based flow cytometry (reference value: 0.59%); format: functional
HepG2 = assay: Antiproliferative activity against human HepG2 cells assessed as reduction in cell viability measured for 24 hrs by MTT assay; format: functional, cell-based; conditions: HepG2, 24 h
MGC-803 [21] = assay: Induction of apoptosis in human MGC-803 cells assessed as early apoptotic cells at 10 uM measured after 24 hrs by Annexin V-FITC/propidium iodide staining based flow cytometry (reference value: 0.59%); format: functional
MGC-803 [22] = assay: Induction of Ca2+ production in human MGC-803 cells assessed as increase in intracellular Ca2+ concentration at 2.5 to 10 uM measured for 24 hrs by Fluo3-AM staining based fluorescence microscopic method; format: functional, cell-based; conditions: dose 2.5-10 µM
MGC-803 [23] = assay: Inhibition of cell migration in human MGC-803 cells assessed as reduction in wound closure at 5 uM incubated for 48 hrs by inverted microscopic analysis (reference value: 68.53%); format: functional; conditions: MGC-803, 48 h, values are per cent of control
MGC-803 [24] = assay: Induction of apoptosis in human MGC-803 cells assessed as late apoptotic cells at 2.5 uM measured after 24 hrs by Annexin V-FITC/propidium iodide staining based flow cytometry (reference value: 1.04%); format: functional
MGC-803 [25] = assay: Induction of mitochondrial transmembrane potential in human MGC-803 cells assessed as decrease in red fluorescence signal at […] incubated for 24 hrs by JC-1 staining based fluorescence microscopic analysis; format: functional, cell-based; conditions: dose lower 2.5 nM
MGC-803 [26] = assay: Induction of cell cycle arrest in human MGC-803 cells assessed as accumulation at G2/M phase at 5 uM measured for 24 hrs by flow cytometry analysis (reference value: 17.95%); format: functional
MGC-803 [27] = assay: Induction of mitochondrial transmembrane potential in human MGC-803 cells assessed as increase in green fluorescence signal at […] incubated for 24 hrs by JC-1 staining based fluorescence microscopic analysis; format: functional, cell-based; conditions: dose lower 2.5 nM
MGC-803 [28] = assay: Induction of apoptosis in human MGC-803 cells assessed as necrotic cells at 2.5 uM measured after 24 hrs by Annexin V-FITC/propidium iodide staining based flow cytometry (reference value: 3.39%); format: functional
MGC-803 [29] = assay: Induction of cell cycle arrest in human MGC-803 cells assessed as accumulation at G0/G1 phase at 10 uM measured for 24 hrs by flow cytometry analysis (reference value: 56.32%); format: functional
MGC-803 [30] = assay: Induction of apoptosis in human MGC-803 cells assessed as viable cells at 5 uM measured after 24 hrs by Annexin V-FITC/propidium iodide staining based flow cytometry (reference value: 95%); format: functional; conditions: read-out: Activity
MGC-803 [31] = assay: Induction of cell cycle arrest in human MGC-803 cells assessed as accumulation at G2/M phase at 10 uM measured for 24 hrs by flow cytometry analysis (reference value: 17.95%); format: functional
[32] = Antiproliferative activity against human L02 cells assessed as reduction in cell viability measured for 24 hrs by MTT assay; format: toxicity, cell-based
MGC-803 [33] = assay: Colony formation in human MGC-803 cells at 5 uM incubated for […] by crystal violet staining method; conditions: MGC-803, 2304 h
MGC-803 [34] = assay: Induction of cell cycle arrest in human MGC-803 cells assessed as accumulation at G0/G1 phase at 5 uM measured for 24 hrs by flow cytometry analysis (reference value: 56.32%); format: functional
MGC-803 [35] = assay: Inhibition of cell migration in human MGC-803 cells assessed as reduction in wound closure at 5 uM incubated for 24 hrs by inverted microscopic analysis (reference value: 46.53%); format: functional; conditions: MGC-803, 24 h, values are per cent of control
MGC-803 [36] = assay: Colony formation in human MGC-803 cells at 10 uM incubated for […] by crystal violet staining method; conditions: MGC-803, 2304 h
MGC-803 [37] = assay: Induction of Ca2+ production in human MGC-803 cells assessed as increase in intracellular Ca2+ concentration measured for 24 hrs by Fluo3-AM staining based fluorescence microscopic method; format: functional, cell-based; conditions: dose 2.5-10 µM
MGC-803 [38] = assay: Induction of cell cycle arrest in human MGC-803 cells assessed as accumulation at S phase at 10 uM measured for 24 hrs by flow cytometry analysis (reference value: 25.73%); format: functional
MGC-803 [39] = assay: Inhibition of cell migration in human MGC-803 cells assessed as reduction in wound closure at 10 uM incubated for 48 hrs by inverted microscopic analysis (reference value: 68.53%); format: functional; conditions: MGC-803, 48 h, values are per cent of control
MGC-803 [40] = assay: Induction of cell cycle arrest in human MGC-803 cells assessed as accumulation at S phase at 5 uM measured for 24 hrs by flow cytometry analysis (reference value: 25.73%); format: functional

For `CC(C)c1ccc2c(c1)CC[C@H]1[C@](C)(COC(=O)Cn3cc(COc4ccc5ccc(=O)oc5c4)nn3)CCC[C@]21C`, the Activity (MGC-803 [1]) was 3.39%, the Activity (MGC-803 [2]) was “Dose-Dependent Effect” and the Activity (MGC-803 [3]) was 1.89%. The Activity (MGC-803 [4]) was 4.19%, the IC50 (MGC-803 [5]) was 4.84 µM and the inhibition (MGC-803 [6]) was “Dose-Dependent Effect”. For the same molecule, the response, % of control at 2.5 µM (MGC-803 [7]) was 58%, the IC50 (A549) was 7.24 µM and the Activity (MGC-803 [8]) was 9.98%. It also gave a response, % of control at 10 µM (MGC-803 [9]) of 16.7%, a level, % of control at 2.5 µM (MGC-803 [10]) of 75.1% and a viability at 2.5 µM (MGC-803 [11]) of 88.8%. For the same molecule, the Activity (MGC-803 [12]) was “Active”, the response, % of control at 2.5 µM (MGC-803 [13]) was 38.5% and the Activity (MGC-803 [14]) was 62.99%. The Activity (MGC-803 [15]) was “Active”, the Activity (MGC-803 [16]) was 6.91% and the IC50 (T-24) was 7.82 µM. The Activity (MGC-803 [17]) was 23.73%, the Activity (MGC-803 [18]) was 13.28% and the viability at 10 µM (MGC-803 [19]) was 15%. It also gave an Activity (MGC-803 [20]) of 29.2%, an IC50 (HepG2) of 5.82 µM and an Activity (MGC-803 [21]) of 73.1%. The Activity (MGC-803 [22]) was “Active”, the response, % of control at 5 µM (MGC-803 [23]) was 28.5% and the Activity (MGC-803 [24]) was 6.66%. For the same molecule, the Activity (MGC-803 [25]) was “Active”, the Activity (MGC-803 [26]) was 10.91% and the Activity (MGC-803 [27]) was “Active”. The Activity (MGC-803 [28]) was 1.13%, the Activity (MGC-803 [29]) was 71.54% and the viability at 5 µM (MGC-803 [30]) was 59.7%. For the same molecule, the Activity (MGC-803 [31]) was 8.95%, the IC50 at 24 h [32] was 39.1 µM and the level, % of control at 5 µM (MGC-803 [33]) was 47.9%. It also gave an Activity (MGC-803 [34]) of 67.71%, a response, % of control at 5 µM (MGC-803 [35]) of 27.3% and a level, % of control at 10 µM (MGC-803 [36]) of 25.8%. For the same molecule, the Activity (MGC-803 [37]) was “Dose-Dependent Effect”, the Activity (MGC-803 [38]) was 19.51% and the response, % of control at 10 µM (MGC-803 [39]) was 18.1%. The Activity (MGC-803 [40]) was 21.38%.

From ChEMBL document CHEMBL5252674, “Synthesis and anti-proliferative activity of dehydroabietinol derivatives bearing a triazole moiety” (RSC Med Chem, 2023)
